In patent US11976046B1, “4-(4,5-bis(4-bromophenyl)-2-(4-methoxyphenyl)-1H-imidazol-1-yl)benzoic acid as an antimicrobial compound” (KING FAISAL UNIVERSITY, priority 2023, dated 2024):

Tested on: different microbes
Test: agar plate disc-diffusion antimicrobial testing
Type: cell-based
Details: against different microbes; screened against gram-positive Bacillus cereus and Staphylococcus aureus, gram-negative Pseudomonas aeruginosa and Escherichia coli, fungi Aspergillus flavus and Chrysosporium keratinophilum
Description: The agar plate disc-diffusion method was applied. Sterilized filter papers (6 mm in diameter) were wetted with 10 μL of a solution of 4-(4,5-bis(4-bromophenyl)-2-(4-methoxyphenyl)-1H-imidazol-1-yl)benzoic acid (V) to be tested, containing 10 mg/mL in DMSO, and the discs were allowed to air dry. The discs were then placed onto the surface of agar plates (nutrient agar for bacteria and Sabouraud's dextrose agar for fungi) seeded with the test organism. Each plate contained 15 mL of the agar medium, previously seeded with 0.2 mL of the broth culture of each organism pregrown for 18 hours. The plates were incubated at 37° C. for 48 hours, and 72 hours for fungi. The inhibition zones was measured in mm. Discs impregnated with DMSO were used as a control, and its inhibition zone was subtracted from the tested compound actual inhibition zone.

SMILES: COc1ccc(-c2nc(-c3ccc(Br)cc3)c(-c3ccc(Br)cc3)n2-c2ccc(C(=O)O)cc2)cc1 [V, 4-(4,5-bis(4-bromophenyl)-2-(4-methoxyphenyl)-1H-imidazol-1-yl)benzoic acid]
- antimicrobial activities: excellent antimicrobial activities
